Patent US11612629B2, “Pharmaceutical composition for preventing or treating muscle diseases, containing ginseng berry extract as active ingredient” (Holistic Bio Co., Ltd., priority 2018, dated 2023)

What was measured:
[1] = system: muscle atrophy induced mice; test: Muscle fiber size and cross-sectional area of gastrocnemius (H&E, image J) in muscle atrophy induced mice; type: in vivo, C57BL/6 mice; settings: 14 days
Description: (§1) First, 5-week-old male C57BL/6 mice were adapted to the animal laboratory environment for 7 days and then divided into 5 groups according to the experimental conditions. Particularly, the experimental groups were divided into the non-treated control group (normal group, Cont), the group induced with muscle atrophy (induction group, IM), the positive control group induced with muscle atrophy and treated with 370 mg/kg of HMB (beta-hydroxy beta-methlybutyrate) (HMB treated group, HMB 370), the group induced with muscle atrophy and treated with low dose (100 mg/kg) of the Panax ginseng berry extract of Example 1 (Panax ginseng berry extract treated group, GBE 100), and the group induced with muscle atrophy and treated with high dose (200 mg/kg) of the Panax ginseng berry extract of Example 1 (Panax ginseng berry extract treated group, GBE 200). Muscle atrophy was induced by immobilization in which a fixation device made of 1.5 mL microfuge tube, clip and velcro tape was applied to one hind leg of a mouse according to ‘Disease models & mechanisms, 8(9), 1059-1069, 2015’. HMB and the Panax ginseng berry extract were dissolved in 0.5% carboxymethyl cellulose (CMC) and administered to the mouse orally once a day for 14 days from the day of the leg immobilization. After 14 days, the gastrocnemius and quadriceps of the hind leg were extracted, weighed, and standardized based on the body weight.
Whether the Panax ginseng berry extract alleviates the muscle fiber cross-sectional area reduction caused by muscle atrophy was confirmed by the following method. Particularly, the gastrocnemius tissue extracted in Experimental Example 1-1 was fixed with 4% paraformaldehyde, stained with hematoxylin and eosin (H&E), and the muscle fiber cross-sectional area was quantified using image J software.

[2] = system: muscle atrophy induced mice; test: Muscle weight (gastrocnemius, quadriceps) per body weight in immobilization-induced muscle atrophy mice; type: in vivo, C57BL/6 mice
Description: as §1

SMILES: CC(C)(O)CC(=O)O [HMB, beta-hydroxy beta-methlybutyrate]
- muscle atrophy protection, muscle fiber cross-sectional area ([1]; 370 mg/kg orally): about 13%
- muscle fiber cross-sectional area decreased compared to the normal group ([1]; 370 mg/kg orally, induction group about 60%): about 47%
- reduction in muscle fiber size (FIG. 3) ([1]; gastrocnemius, HMB 370 mg/kg, extract 100 and 200 mg/kg orally): alleviated
- weight of the quadriceps reduced compared to the normal group ([2]; 370 mg/kg orally once a day for 14 days, induction group (IM) about 33%): about 17%
- weight of the gastrocnemius reduced compared to the normal group ([2]; 370 mg/kg orally once a day for 14 days, induction group (IM) about 40%): about 24%
- protective ability of muscle atrophy (muscle weight) ([2]; 370 mg/kg orally, 14 days, gastrocnemius and quadriceps): about 16%
